Data published in the NIST ThermoML archive (doi:10.1021/je700732u).

What was measured:
[1] = mn = molality of the nth substance listed, in mol/kg; details: 298.15 K, 101 kPa, Liquid
[2] = cn = amount concentration of the nth substance listed, in mol/dm3; details: 298.15 K, 101 kPa, Liquid

OC[C@H]1O[C@@](CO)(O[C@H]2O[C@H](CO)[C@@H](O)[C@H](O)[C@H]2O)[C@@H](O)[C@@H]1O [D-sucrose] + O
[1]
Details | mass density [kg/m3] | viscosity [mPa·s]
m1 = 0.2 | 1022.17 | 1.064
m1 = 0.4 | 1045.26 | 1.277
m1 = 0.6 | 1066.44 | 1.533
m1 = 0.8 | 1086.04 | 1.843
m1 = 1 | 1104.2 | 2.241
m1 = 1.2 | 1121.03 | 2.638

[Cl][Cu][Cl] [copper chloride] + O
[1]
Details | mass density [kg/m3]
m1 = 0.0498 | 1003.12
m1 = 0.09962 | 1009.1
m1 = 0.1992 | 1020.92
m1 = 0.2988 | 1032.58
m1 = 0.498 | 1055.47

O=S(=O)([O-])[O-].[Cu+2] [copper sulfate] + O
Details | mass density [kg/m3] | viscosity [mPa·s]
[1], m1 = 0.05 | 1005.22 | –
[1], m1 = 0.1 | 1013.29 | –
[1], m1 = 0.2 | 1029.16 | –
[1], m1 = 0.3 | 1044.87 | –
[1], m1 = 0.4 | 1060.4 | –
[1], m1 = 0.5 | 1075.78 | –
[2], c1 = 0.04986 | – | 0.9222
[2], c1 = 0.09974 | – | 0.9516
[2], c1 = 0.1995 | – | 1.013
[2], c1 = 0.2991 | – | 1.083
[2], c1 = 0.3987 | – | 1.147
[2], c1 = 0.4981 | – | 1.223

[Cl-].[Cl-].[Mg+2] [magnesium chloride] + O
[1]
Details | mass density [kg/m3]
m1 = 0.09998 | 1004.88
m1 = 0.2001 | 1012.54
m1 = 0.4002 | 1027.51
m1 = 0.5 | 1034.83

O=S(=O)([O-])[O-].[Mg+2] [magnesium sulfate] + O
Details | mass density [kg/m3] | viscosity [mPa·s]
[1], m1 = 0.05 | 1003.14 | –
[1], m1 = 0.1 | 1009.13 | –
[1], m1 = 0.2 | 1020.83 | –
[1], m1 = 0.3 | 1032.43 | –
[1], m1 = 0.4 | 1043.79 | –
[1], m1 = 0.5 | 1055.11 | –
[2], c1 = 0.04787 | – | 0.9216
[2], c1 = 0.09971 | – | 0.9527
[2], c1 = 0.1994 | – | 1.016
[2], c1 = 0.2989 | – | 1.083
[2], c1 = 0.3983 | – | 1.155
[2], c1 = 0.4976 | – | 1.234

[Cl-].[Na+] [sodium chloride] + O
[1]
Details | mass density [kg/m3]
m1 = 0.04999 | 999.11
m1 = 0.09999 | 1001.16
m1 = 0.1999 | 1005.2
m1 = 0.2999 | 1009.2
m1 = 0.4002 | 1013.17

O=S(=O)([O-])[O-].[Na+].[Na+] [sodium sulfate] + O
[1]
Details | mass density [kg/m3]
m1 = 0.09205 | 1008.69
m1 = 0.2001 | 1021.99
m1 = 0.3 | 1034.01
m1 = 0.3999 | 1045.81
m1 = 0.5001 | 1057.44
